We go through 74 compounds from publication PMC13083723 (Patterns, 2026).

One test has as its system Vero-E6 cells. Kind of test: cells. In kind it is cell-based.
Settings: not given
The compound `CCNC(=O)C[C@@H]1N=C(c2ccc(Cl)cc2)c2cc(OC)ccc2-n2c(C)nnc21` [I-BET-762, reference compound] returned a result_ITMP of 13.27 percent effect.

The same test, now with this note: Chlorocebus sabaeus, Vero C1008, 24 h, read-out: PL_Result.
As to `C#CCN(C)Cc1ccccc1` [SPE_K83597974], the activation at 10 µM was -2.77%.
The same measure, in the same setting: under `NC(=O)C1=CN([C@@H]2O[C@H](COP(=O)(O)OP(=O)(O)OC[C@H]3O[C@@H](n4cnc5c(N)ncnc54)[C@H](OP(=O)(O)O)[C@@H]3O)[C@@H](O)[C@H]2O)C=CC1` [SPE_M06409173] stands -2.48%.
Consider `COc1ccc2cc([C@H](C)C(=O)O)ccc2c1` [SPE_K59197931], for which the activation at 10 µM was -3.31%.
For the compound `Cc1ccc(S(=O)(=O)/C=C/C#N)cc1` [SPE_K15025317], the activation at 10 µM was -2.64%.
Still for that read-out and setting: under `C[C@]12C=CC(=O)C=C1CCC1C2[C@@H](O)C[C@@]2(C)C1CC[C@]2(O)C(=O)COC(=O)CCC(=O)O` (some centres unmarked) [SPE_A78391468] stands 3.52%; under `COc1ccc(-c2sc(NC(=O)C(C)(C)C)nc2C)cc1S(=O)(=O)Nc1ccc(O)cc1` [SPE_K75528696], 21.7%.
In the case of `CC(=O)Nc1nc(C)c(-c2ccc(Cl)c(S(=O)(=O)NCCO)c2)s1` [SPE_K29395450], the activation at 10 µM was -9.8%.
The same measure, in the same setting: the value for `Cc1cc(OCc2nc(-c3ccccc3Cl)cs2)ccc1OCC(=O)O` [SPE_K19409553] was 5.84%.
Same read-out and setting: under `CC(C)Cn1cnc2c1c(=O)n(C)c(=O)n2C` [SPE_K06762493] stands -8.79%.
On the same count and under the same terms, the value for `CC(C)(C)NCC(O)COc1cccc2c1CCC(=O)N2` (centres unmarked) [SPE_A42167015] was 2.81%.
Regarding `C[C@@H]1C[C@H]2[C@@H]3CCC4=CC(=O)C=C[C@]4(C)[C@@]3(F)[C@@H](O)C[C@]2(C)[C@@]1(O)C(=O)CO` [SPE_A10188456], the activation at 10 µM is -8.72%.
Same read-out and setting: the value for `C1CCC2(CC1)CCNCC2` [SPE_K49545903] was -14.5%.
The same measure, in the same setting: the value for `CCCCCCCCCCC(=O)O[C@H]1CC[C@H]2[C@@H]3CCC4=CC(=O)CC[C@]4(C)[C@H]3CC[C@]12C` [SPE_K70650177] was -4.09%.
Take `Cc1ccc2c(c1CCC(=O)O)CC[C@@H](NS(=O)(=O)c1ccc(Cl)cc1)C2` [SPE_K43975632]: the activation at 10 µM is 0.256%.
The same measure, in the same setting: under `O=c1c2ccccc2oc2ccccc12` [SPE_K27135764] stands 4.69%; under `COc1ccccc1N1CCN(CCCCN2C(=O)c3ccccc3C2=O)CC1` [SPE_K69195780], -5.05%.
Still for that read-out and setting: under `Fc1ccc(C(OCCN2CCN(CCCc3ccccc3)CC2)c2ccc(F)cc2)cc1` [SPE_K32501161] stands -3.21%; under `CCCCCCCCCCCCCCCCCCO` [SPE_K20501889], -5.89%; under `Cc1cc(C)cc(C(=O)OC2CC3CCC(C2)N3C)c1` (centres unmarked) [SPE_A84389633], 9.75%.
The same measure, in the same setting: under `CCN(CC)Cc1ccc(C(=O)N(CCc2ccccc2OC)[C@@H]2CCNC2)cc1` [SPE_K11821338] stands -4.98%; under `CCCCc1nc(Cl)c(C(=O)O)n1Cc1ccc(-c2ccccc2-c2nnn[nH]2)cc1` [SPE_K23533833], 4.67%; under `Nc1ncnc2c1ncn2C1O[C@H](COP(=O)(O)O)[C@@H](O)[C@H]1O` (some centres unmarked) [SPE_A10111329], -12.1%.
Regarding `CC(=O)[C@@]1(O)CC[C@H]2[C@@H]3C[C@H](C)C4=CC(=O)CC[C@]4(C)[C@H]3CC[C@@]21C` [SPE_K99615199], the activation at 10 µM was -9.68%.
On the same count and under the same terms, the value for `O=C1NC(=O)c2c1c1c3ccccc3[nH]c1c1[nH]c3ccccc3c21` [SPE_K72726508] was 12.7%; that for `Nc1c(S(=O)(=O)O)cc(Nc2cccc3ccccc23)c2c1C(=O)c1ccccc1C2=O` [SPE_K71266197] was -13.9%; that for `CC(C)Nc1nc2cc(Cl)c(Cl)cc2n1[C@H]1O[C@@H](CO)[C@H](O)[C@@H]1O` [SPE_K59524082] was -6.13%.
On to `O=[N+]([O-])c1cn2c(n1)OC[C@@H](OCc1ccc(OC(F)(F)F)cc1)C2` [SPE_K96671969], for which the activation at 10 µM is -12.7%.
On the same count and under the same terms, under `COc1cc2ncnc(Nc3ccc(Oc4ccccc4)cc3)c2cc1OC` [SPE_K50495309] stands -8.17%; under `N#CC(c1ccccc1)(c1ccccc1)c1ccccc1Cl` [SPE_K81341251], 4.81%.
With `Clc1ccc(C(OCCN2CCCCC2)c2ccccc2)cc1` (centres unmarked) [SPE_A80908310], the activation at 10 µM was found to be 72.5%.
On the same count and under the same terms, under `COc1cccc(-c2cc(NCc3ccc4c(c3)OCO4)nc(N)n2)c1` [SPE_K42624714] stands -1.5%; under `CNC[C@H](O)c1cccc(O)c1` [SPE_K73381542], 3.82%.
Turning to `CCC(=O)NO` [SPE_K11984358], the activation at 10 µM is -5.92%.
On the same count and under the same terms, under `CCC(Oc1ccc(Cl)cc1)C(=O)OC1CC2CCC(C1)N2C` (centres unmarked) [SPE_A92933783] stands -0.394%; under `CC1=CC[C@@H](C(C)(C)O)C[C@@H]1O` [SPE_K58262380], -11.5%; under `NC[C@H](CC(=O)O)c1ccc(Cl)cc1` [SPE_K62353271], -10.2%.
The same measure, in the same setting: under `CC1CCN(C(c2ccc(F)cc2)c2ccc(C(C)C(=O)O)cc2-c2ccc(C(F)(F)F)cc2)CC1` (centres unmarked) [SPE_A66521565] stands -6.16%; under `O=c1oc(-c2ccc(C(F)(F)F)cc2)nn1Cc1cc(Cl)ccc1O` [SPE_K95609758], 5.3%; under `O=C(O)[C@H](Cc1c[nH]c2ccccc12)N1C(=O)c2ccccc2C1=O` [SPE_K89391146], -6.19%.
Still for that read-out and setting: the value for `O=C(O)c1cn(-c2ccc(F)cc2)c2cc(N3CCNCC3)c(F)cc2c1=O` [SPE_K08525451] was -3.13%; that for `CN1CCN(c2ccc3nc(-c4ccc5nc(-c6ccc(O)cc6)[nH]c5c4)[nH]c3c2)CC1` [SPE_K17026858] was -8.8%.
For the compound `COc1cc2c(cc1OC)[C@@H]1CC(=O)[C@@H](CC(C)C)CN1CC2` [SPE_K95739795], the activation at 10 µM is -5.22%.
Still for that read-out and setting: under `CC(=O)O[C@]1(C(C)=O)CC[C@H]2[C@@H]3C[C@H](C)C4=CC(=O)C=C[C@]4(C)[C@@]3(F)[C@@H](O)C[C@@]21C` [SPE_K02528732] stands -9.55%.
Still for that read-out and setting: under `c1ccc(Cn2c(-c3ccc(OC[C@H](C4CCNCC4)n4c(-c5ccccc5)nc5ccccc54)cc3)nc3ccccc32)cc1` [SPE_K90830492] stands 1.3%.
Same read-out and setting: the value for `Nc1ncc(Cc2ccc(Br)cc2)s1` [SPE_K03808106] was -0.249%.
Consider `CC(=O)c1ccc(S(=O)(=O)NC(=O)NC2CCCCC2)cc1` [SPE_K52960356], for which the activation at 10 µM was found to be 6.72%.
The same measure, in the same setting: the value for `CCn1cc(C(=O)O)c(=O)c2cc(F)c(N3CCNC(C)C3)c(F)c21` (centres unmarked) [SPE_A75850590] was -1.78%.
With `CN(C)CCc1c[nH]c2ccc(CS(=O)(=O)N3CCCC3)cc12` [SPE_K67601717], the activation at 10 µM was -4.95%.
Still for that read-out and setting: the value for `C[C@H](N)[C@H](O)c1cccc(O)c1` [SPE_K96253961] was -12.2%; that for `CC(=O)NNC(=O)N1Cc2ccccc2Oc2ccc(Cl)cc21` [SPE_K52512893] was -10.6%; that for `Cc1[nH]c2ccccc2c1CCNCc1ccc(/C=C/C(=O)NO)cc1` [SPE_K02130563] was -9.42%.
Same read-out and setting: under `CN(C)CC(=O)Nc1ccc2[nH]c(=O)c3ccccc3c2c1` [SPE_K11853856] stands -0.459%.
Same read-out and setting: under `COc1cc(N2CCC(O)CC2)ccc1Nc1cc(Nc2ccccc2S(=O)(=O)C(C)C)c2cc[nH]c2n1` [SPE_K94853001] stands -4.69%; under `CCC(C)(C)C(=O)C(=O)N1CCC[C@H]1C(=O)OCCCc1cccnc1` [SPE_K44869961], 2.45%; under `Nc1nc2[nH]nnc2c(=O)[nH]1` [SPE_K53114651], -1.39%.
`O=C(NC(Cc1c[nH]c2ccccc12)C(=O)O)c1ccc(Cl)cc1` (centres unmarked) [SPE_A87983072]: the activation at 10 µM is -4.45%.
Same read-out and setting: under `CC[C@@]1(O)C(=O)OCc2c1cc1n(c2=O)Cc2cc3c(CN(C)C)c(O)ccc3nc2-1` [SPE_K55696337] stands -1.88%; under `N#CCNC(=O)c1ccc(-c2ccnc(Nc3ccc(N4CCOCC4)cc3)n2)cc1` [SPE_K87737963], 7.32%; under `Cc1cc2nc3c(=O)[nH]c(=O)nc-3n(C)c2cc1C=O` [SPE_K00486786], -6.31%.
Still for that read-out and setting: under `C[C@@H](c1ncncc1F)[C@](O)(Cn1cncn1)c1ccc(F)cc1F` [SPE_K06557128] stands -4.59%.
The same measure, in the same setting: the value for `Nn1cnc2cc3ccccc3cc2c1=O` [SPE_K31329721] was -8.33%; that for `COc1ccc(NS(=O)(=O)c2ccc(I)cc2)cc1N1CCN(C)CC1` [SPE_K80639402] was 17.6%.
For `CCc1ccc(C(=O)C(C)CN2CCCCC2)cc1` (centres unmarked) [SPE_A04252265], the activation at 10 µM is -4.05%.
Turning to `C[C@H](NC(=O)/C(C#N)=C/c1ccc(O)c(O)c1)c1ccccc1` [SPE_K17415526], the activation at 10 µM is -1.61%.
Still for that read-out and setting: under `Cn1c2c(c3ccccc31)CCNCC2` [SPE_K16551401] stands 7.36%; under `O=C1C=CC[C@@H]2[C@H]3CCCN4CCC[C@@H](CN12)[C@@H]34` [SPE_K66845263], -5.47%.
The same measure, in the same setting: the value for `CC(C)n1cnc2c(C(=O)N[C@H]3CN4CCC3CC4)cc(Cl)cc21` [SPE_K80725821] was 0.494%; that for `O=C(O)C1=CCCN(CCON=C(c2ccccc2)c2ccccc2)C1` [SPE_K42221274] was 0.196%.
With `O=C(N[C@H]1CN2CCC1CC2)c1ccc(Cl)cc1` [SPE_K28863208], the activation at 10 µM is -0.0405%.
In the case of `Nc1ccc(C(=O)Oc2ccccc2)c(O)c1` [SPE_K73157543], the activation at 10 µM was -14.5%.
Still for that read-out and setting: under `CCC(N)C(O)c1ccc(O)c(O)c1` (centres unmarked) [SPE_A68509429] stands -8.71%; under `C=C(C)[C@@H]1CC[C@]2(C(=O)O)CC[C@]3(C)[C@H](CC[C@@H]4[C@@]5(C)CC[C@H](O)C(C)(C)[C@@H]5CC[C@]43C)[C@@H]12` [SPE_K45401373], -11.4%; under `Oc1cc(O)c2c(c1)O[C@H](c1ccc(O)c(O)c1)[C@@H](O)C2` [SPE_K58736316], -12.2%.
